Laboratory results taken from patent US11898210B2, “Tools for assessing FimH blockers therapeutic efficiency” (ENTEROME, priority 2017, dated 2024).

Tests used:
[1] = system: LF82; assay: Aggregation assay with EB8018 on positive control strain LF82; type: cell-based, Escherichia coli
Method: (§1) Three days before aggregation assays, bacterial strains were defrosted on TSA (Tryptone Soya Agar) plates. A first overnight culture was performed by inoculation of 3 mL of LB broth with a single colony of bacteria followed by a second overnight culture (1 mL of the first culture+4 mL LB broth).
(§2) Six concentrations of EB8018 (sample SP-0010269-017 produced by China Gateway) were tested in the aggregation assays (1 nM/10 nM/100 nM/1 μM/10 μM and 100 μM), 500× working solutions were prepared in pure DMSO by 10-fold serial dilutions from a 100 mM stock solution (65 mg EB8018+1 mL DMSO; MEB8018:649.68 g/mol). The 500× working solutions (1 μM, 10 μM, 100 μM, 1 mM, 10 mM and 100 mM) were split into aliquots and stored at −20° C., until use.
On the day of the test, an aliquot of each EB8018 500× working solution (1 μM, 10 μM, 100 μM, 1 mM, 10 mM and 100 mM) was defrosted and diluted twice in LB medium (1:20 for the first dilution and 1:25 for the second dilution) to obtain respectively six 2× working solutions (2 nM, 20 nM, 200 nM, 2 μM, 20 μM and 200 μM). The second overnight bacterial cultures were diluted in LB medium (50-fold dilution). Fifty μL of these bacteria dilutions were dispensed into 96-well plates (8 wells/strain). Fifty μL of the EB8018 2× working solutions or fresh LB or LB with 0.2% DMSO were added to the wells. Microplates were incubated for 5 hours at 37° C. under constant shaking (200 rpm). Every hour, each well was observed and the starting time of aggregation was recorded. After 5 hours of incubation, a picture was taken only in wells where an aggregation was observed. For each concentration and each time point, aggregation was evaluated by a technician.
This protocol was applied to the 113 isolated bacterial strains. On each plate, a positive control (LF82) and a negative control (LF82-ΔFimH) were used.

[2] = system: LF82-ΔFimH; assay: Aggregation assay with EB8018 on negative control strain LF82-ΔFimH; type: cell-based, Escherichia coli; conditions: whatever the concentration tested and whatever the time of incubation
Method: as §1, §2
(§3) On the day of the test, an aliquot of each EB8018 500× working solution (1 μM, 10 μM, 100 μM, 1 mM, 10 mM and 100 mM) was defrosted and diluted twice in LB medium (1:20 for the first dilution and 1:25 for the second dilution) to obtain respectively six 2× working solutions (2 nM, 20 nM, 200 nM, 2 μM, 20 μM and 200 μM). The second overnight bacterial cultures were diluted in LB medium (50-fold dilution). […] Every hour, each well was observed and the starting time of aggregation was recorded. […] For each concentration and each time point, aggregation was evaluated by a technician. […]

[3] = system: isolated E. coli strains; assay: Aggregation assay with EB8018 on the collection of isolated bacterial strains; type: cell-based, Escherichia coli
From the text: 110 E. coli strains from La Girona University (Margarita Medina-Martinez Lab-Girona-Spain) and Cornell (Kenneth Simpson Lab—Ithaca—USA) have been made available through MTA. These isolated strains had been previously extracted from the stool or ileal/colonic biopsies of IBD patients or controls and had been characterised for their AIEC phenotype (for Cornell strains see Dogan B. et al., 2014; Baumgart M. et al., 2007, summarized in the Appendix). Those 110 strains have been sent to SMALTIS (Besangon, France) who is in charge of all laboratory work. An additional 3 non E. coli strains have been ordered as well as LF82 and LF82 deltaFimH that serve as respectively positive and negative controls.
as §1, §2, §3

[4] = system: bacterial morphotypes isolated from biopsies of CD patients; assay: Aggregation to EB8018 of bacterial morphotypes isolated from MOBIDIC ileal biopsies; type: cell-based; conditions: 106 CD patients with conclusive biopsy results; 10 nM/100 nM/1 μM EB8018
Method: Mucosal specimens, isolated from CD patients have been collected from the MOBIDIC study. For each patient, 4 biopsies were collected, 2 or 3 for further investigations and 1 or 2 as back-up sample stored at Cell&Co (Clermont-Ferrand, France). The ileal specimens were introduced immediately into preweighed vials containing 1.8 mL of refrigerated DMEM with 15% glycerol. The vials were weighed to establish the weight of sample. Ideally, the size of the biopsies must be between 5 and 10 mg. After being frozen at −80° C., vials were sent to Cell&Co and stored at −80° C. upon receipt.
On day 1, biopsies were processed to retrieve adherent bacteria (extract A) and invasive bacteria (extract I). […]
Extracts A and I were cultivated in LB broth for 2×24 hours and on day 3, the LB overnight cultures were used for aggregation assays with EB8018 compound. […] Every hour, bacterial growth was measured and a picture of each well was taken using a SPARK10M. After 5 hours, the microplate was shacked and 10 min after, a picture was taken for aggregation assessment (aggregation was evaluated by a technician with comparison with DMSO). […]
When no aggregation was observed on extracts or in case of inconclusive evaluation (for example with observation of aggregation with the DMSO without any compound), a second biopsy was analysed following the same protocol. […]

[5] = system: AIEC; conditions: Bouckaert et al., 2005, 2013; cited from earlier work
[6] = system: cystitis murine model; conditions: Wellens et al., 2008; cited from earlier work
[7] = system: AIEC; conditions: CEABAC 10 Crohn's disease model; Sivignon 2015; cited from earlier work

CC(=O)N1CCC2(CC1)c1cc(C#C[C@H]3O[C@H](CO)[C@@H](O)[C@H](O)[C@@H]3O)ccc1-c1ccc(C#C[C@H]3O[C@H](CO)[C@@H](O)[C@H](O)[C@@H]3O)cc12 [EB8018, 1-(2,7-bis(((2R,3S,4R,5S,6R)-3,4,5-trihydroxy-6-(hydroxylmethyl)tetrahydro-2H-pyran-2-yl)ethynyl)spiro[fluorene-9,4′-piperidin]-1′-yl)ethan-1-one]
level of aggregation ([1]; LF82, 1 nM EB8018, after 5 h of incubation): strong aggregation
level of aggregation ([1]; LF82, 10 nM EB8018, after 5 h of incubation): strong aggregation
level of aggregation ([1]; LF82, 100 nM EB8018, after 5 h of incubation): strong aggregation
level of aggregation ([1]; LF82, 1 μM EB8018, after 5 h of incubation): moderate aggregation
starting time of aggregation ([1]; LF82 positive control, incubation at 37° C.): 2 h
aggregation [2]: did not aggregate
share of analyzable strains classified on the grey zone (low aggregation) ([3]; 6 concentrations, every hour for 5 hours): 13%
share of analyzable strains that did not aggregate ([3]; all results negative across 6 concentrations and 5 hours): 44%
share of analyzable strains that did aggregate ([3]; at least one + or +/− across 6 concentrations and 5 hours): 42%
share of patients with at least one morphotype that aggregated [4]: 65%
share of patients with no aggregation [4]: 15%

CCCCCCCO[C@H]1O[C@H](CO)[C@@H](O)[C@H](O)[C@@H]1O [Heptylmannose]
in vitro AIEC adhesion inhibition [5]: potent
concentration required for a significant bacterial load reduction [6]: millimolar concentrations are required
effect with AIEC [7]: no effect
